In US20230279023A1, “N/O-Linked Degrons and Degronimers for Protein Degradation” (C4 Therapeutics, Inc., priority 2019, published 2023):

target: CRBN-DDB1 (Homo sapiens (Human), UniProt Q96SW2); assay: Fluorescence polarization (FP) assay for compound ligand binding to CRBN-DDB1; conditions: FP displacement of (−)-Thalidomide-Alexa Fluor or Pomalidomide-fluorescein probe; 400 nM CRBN-DDB1, 5 nM probe; Compounds of the Present Invention
Method: Measuring compound ligand binding to CRBN-DDB1 was carried out using an established sensitive and quantitative in vitro fluorescence polarization (FP) based binding assay. […] Compounds were dispensed from serially diluted DMSO stock into black 384-well compatible fluorescence polarization plates using an Echo acoustic dispenser. Compound binding to CRBN-DDB1 was measured by displacement of either a (−)-Thalidomide-Alexa Fluor® or Pomalidomide-fluorescein conjugated probe dye. […] Matching control wells excluding CRBN-DDB1 were used to correct for background fluorescence. Plates were read on an Envision plate reader with appropriate FP filter sets. The corrected S (perpendicular) and P (parallel) values were used to calculate fluorescence polarization (FP) with the following equation: […]

Chain of CRBN-DDB1 (Q96SW2 whole entry): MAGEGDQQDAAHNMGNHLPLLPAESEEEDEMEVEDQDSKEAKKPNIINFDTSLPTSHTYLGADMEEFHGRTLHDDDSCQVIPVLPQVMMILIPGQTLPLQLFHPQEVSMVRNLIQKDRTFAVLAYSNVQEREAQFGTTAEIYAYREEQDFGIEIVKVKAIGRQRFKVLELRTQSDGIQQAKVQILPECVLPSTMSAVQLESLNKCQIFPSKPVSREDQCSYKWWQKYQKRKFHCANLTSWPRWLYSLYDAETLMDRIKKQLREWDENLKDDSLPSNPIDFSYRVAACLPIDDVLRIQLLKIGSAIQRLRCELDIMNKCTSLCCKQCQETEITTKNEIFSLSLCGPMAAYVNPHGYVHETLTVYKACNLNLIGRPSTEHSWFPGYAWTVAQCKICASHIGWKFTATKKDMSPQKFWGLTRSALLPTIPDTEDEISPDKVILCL
Chain of CRBN-DDB1 (Q16531 whole entry partner): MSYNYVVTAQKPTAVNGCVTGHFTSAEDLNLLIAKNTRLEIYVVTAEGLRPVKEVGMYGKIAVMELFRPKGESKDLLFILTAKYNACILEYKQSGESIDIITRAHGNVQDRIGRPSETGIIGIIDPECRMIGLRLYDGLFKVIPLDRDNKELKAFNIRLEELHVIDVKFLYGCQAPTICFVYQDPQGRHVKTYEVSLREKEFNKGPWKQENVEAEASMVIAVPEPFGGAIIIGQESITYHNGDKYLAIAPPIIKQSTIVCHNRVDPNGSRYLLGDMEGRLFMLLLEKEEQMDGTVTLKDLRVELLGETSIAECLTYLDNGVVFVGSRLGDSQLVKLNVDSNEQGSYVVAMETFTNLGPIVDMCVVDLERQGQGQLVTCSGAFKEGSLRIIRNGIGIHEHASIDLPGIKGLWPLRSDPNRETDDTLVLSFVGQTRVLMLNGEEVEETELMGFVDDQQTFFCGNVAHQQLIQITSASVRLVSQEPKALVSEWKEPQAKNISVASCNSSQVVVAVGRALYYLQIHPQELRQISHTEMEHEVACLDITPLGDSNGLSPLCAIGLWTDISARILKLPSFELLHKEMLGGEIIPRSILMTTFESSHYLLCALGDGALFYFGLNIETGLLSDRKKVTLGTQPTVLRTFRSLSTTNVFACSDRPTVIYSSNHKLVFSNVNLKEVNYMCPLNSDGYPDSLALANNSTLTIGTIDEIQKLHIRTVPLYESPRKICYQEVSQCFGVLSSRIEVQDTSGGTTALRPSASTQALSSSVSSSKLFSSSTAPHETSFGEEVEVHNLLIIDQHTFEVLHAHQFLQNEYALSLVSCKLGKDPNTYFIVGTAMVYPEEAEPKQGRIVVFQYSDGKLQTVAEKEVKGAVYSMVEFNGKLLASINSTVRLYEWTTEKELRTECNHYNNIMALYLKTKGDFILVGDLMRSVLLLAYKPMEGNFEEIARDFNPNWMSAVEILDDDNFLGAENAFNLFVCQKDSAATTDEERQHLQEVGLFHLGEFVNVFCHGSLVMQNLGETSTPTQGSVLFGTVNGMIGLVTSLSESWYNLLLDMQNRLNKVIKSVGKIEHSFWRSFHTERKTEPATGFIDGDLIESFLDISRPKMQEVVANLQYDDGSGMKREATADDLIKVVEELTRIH

SMILES	Kd [µM]
CN1CCC(N(C)C2CCC(=O)NC2=O)CC1=O (stereo not drawn) [Compound 106]	> 100
CN(c1cccc(F)c1)C1CCC(=O)NC1=O (stereo not drawn) [Compound 33]	< 10
O=C1CCC(Nc2ccccc2F)C(=O)N1 (stereo not drawn) [Compound 53]	< 10
O=C1CCC(Nc2ccccc2Cl)C(=O)N1 (stereo not drawn) [Compound 49]	< 10
N#Cc1c[nH]nc1NC1CCC(=O)NC1=O (stereo not drawn) [Compound 96]	> 100
O=C1CCC(Nc2cccc(Cl)c2)C(=O)N1 (stereo not drawn) [Compound 40]	< 10
O=C1CCC(N2CCc3cccnc32)C(=O)N1 (stereo not drawn) [Compound 118]	> 100
O=C1CCC(Nc2ccc(F)cc2Cl)C(=O)N1 (stereo not drawn) [Compound 43]	< 10
O=C1CCC(Nc2cccc(F)c2)C(=O)N1 (stereo not drawn) [Compound 9]	< 10
COc1ccc(C)cc1NC1CCC(=O)NC1=O (stereo not drawn) [Compound 42]	< 10
CN(C1CNC1)C1CCC(=O)NC1=O (stereo not drawn) [Compound 101]	> 100

same assay, conditions: FP displacement of (−)-Thalidomide-Alexa Fluor or Pomalidomide-fluorescein probe; 400 nM CRBN-DDB1, 5 nM probe; Degronimers

SMILES	Kd [µM]
Cc1sc2c(c1C)C(c1ccc(Cl)cc1)=N[C@@H](CC(=O)NCCCCCCCCN1CCN(c3ccc(NC4CCC(=O)NC4=O)cc3)CC1)c1nnc(C)n1-2 (stereo partly drawn) [Degronimer 1, 2-((S)-4-(4-chlorophenyl)-2,3,9-trimethyl-6H-thieno[3,2-f][1,2,4]triazolo[4,3-a][1,4]diazepin-6-yl)-N-(8-(4-(4-((2,6-dioxopiperidin-3-yl)amino)phenyl)piperazin-1-yl)octyl)acetamide]	< 10
